Measured values as given in patent US20120189641A1, “COMBINATION ANTI-CANCER THERAPY” (OSI PHARMACEUTICALS, LLC, priority 2009, published 2012).
Entries after “also recorded” stand apart in the source; their conditions may differ.

What was measured:
IGF-1R = target: T1, IGF-1R (Homo sapiens, UniProt P08069); experiment: IGF-1R phosphorylation (pIGF-1R) in tumor cells, RTK capture array; format: cell-based; conditions: OSI-906 3 uM, 24 hours
T1 construct: endogenous in cells; host or cells: A673, H322, HT-29 tumor cells
T1 sequence (P08069 31-1367): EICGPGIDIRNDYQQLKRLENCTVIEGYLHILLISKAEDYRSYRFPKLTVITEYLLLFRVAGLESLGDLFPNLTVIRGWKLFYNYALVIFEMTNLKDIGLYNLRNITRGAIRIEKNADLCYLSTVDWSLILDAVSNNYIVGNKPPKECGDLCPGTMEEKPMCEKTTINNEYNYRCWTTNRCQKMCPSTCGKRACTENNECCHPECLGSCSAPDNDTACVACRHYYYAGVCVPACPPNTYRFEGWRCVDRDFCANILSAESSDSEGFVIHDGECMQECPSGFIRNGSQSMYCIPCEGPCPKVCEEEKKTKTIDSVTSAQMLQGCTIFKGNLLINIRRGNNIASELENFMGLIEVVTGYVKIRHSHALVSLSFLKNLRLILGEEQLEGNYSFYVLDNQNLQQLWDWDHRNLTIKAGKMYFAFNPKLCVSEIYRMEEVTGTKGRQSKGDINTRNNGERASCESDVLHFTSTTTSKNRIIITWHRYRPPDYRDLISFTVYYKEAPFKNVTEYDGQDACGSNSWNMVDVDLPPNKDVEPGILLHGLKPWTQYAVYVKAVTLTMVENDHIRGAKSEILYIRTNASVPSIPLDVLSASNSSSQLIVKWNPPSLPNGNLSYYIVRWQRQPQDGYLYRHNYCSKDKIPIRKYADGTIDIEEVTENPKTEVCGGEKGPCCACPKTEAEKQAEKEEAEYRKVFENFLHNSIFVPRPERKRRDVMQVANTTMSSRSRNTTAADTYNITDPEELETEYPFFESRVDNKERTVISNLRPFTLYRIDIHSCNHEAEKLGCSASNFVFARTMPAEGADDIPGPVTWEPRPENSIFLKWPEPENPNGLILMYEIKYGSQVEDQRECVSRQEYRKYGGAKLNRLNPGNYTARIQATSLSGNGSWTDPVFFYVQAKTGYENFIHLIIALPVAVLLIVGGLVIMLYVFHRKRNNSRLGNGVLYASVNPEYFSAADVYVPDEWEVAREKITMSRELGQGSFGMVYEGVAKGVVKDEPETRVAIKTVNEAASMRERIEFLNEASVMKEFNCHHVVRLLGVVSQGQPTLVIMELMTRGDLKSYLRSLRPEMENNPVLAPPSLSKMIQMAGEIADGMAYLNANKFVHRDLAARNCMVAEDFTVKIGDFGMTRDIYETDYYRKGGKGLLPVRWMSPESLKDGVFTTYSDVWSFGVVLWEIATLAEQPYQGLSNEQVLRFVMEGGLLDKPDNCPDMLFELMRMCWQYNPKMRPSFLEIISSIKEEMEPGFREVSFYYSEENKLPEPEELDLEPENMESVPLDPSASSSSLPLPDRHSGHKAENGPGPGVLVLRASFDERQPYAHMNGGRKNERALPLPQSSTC
Description: The media was removed, cells were washed two times with PBS, and cells were lysed as previously described.

Akt pathway = experiment: Downstream signaling (pAkt, pErk) in tumor cell lysates, Western blotting; format: cell-based, human; conditions: H322 NSCLC and HT-29 CRC cells; OSI-906 3 uM or MAB-391 2 ug/ml; 24 hours
Description: Cell extracts were prepared by detergent lysis (50 mM Tris-HCl, pH 8.0, 150 mM NaCl, 1% NP-40, 0.5% sodium deoxycholate, 0.1% SDS, containing protease inhibitor (P8340, Sigma, St. Louis, Mo.) and phosphatase inhibitor (P5726, Sigma, St. Louis, Mo.) cocktails. The soluble protein concentration was determined by micro-BSA assay (Pierce, Rockford Ill.). Protein immunodetection was performed by electrophoretic transfer of SDS-PAGE separated proteins to nitrocellulose, incubation with antibody, and chemiluminescent second step detection (PicoWest; Pierce, Rockford, Ill.). The antibodies included: phospho-Akt(473) and total Akt. Both antibodies were obtained from Cell Signaling Technology, Inc. (Danvers, Mass.). For analysis of an agent's effect on the phosphorylation of downstream signaling proteins, cell lines were grown to approximately 70% confluency, at which time the indicated agent was added at the indicated concentration, and cells were incubated at 37° C. for 24 hours. The media was removed, cells were washed two times with PBS, and cells were lysed as previously described.

IGF-1R and IR = experiment: Biochemical potency against IGF-1R and IR; conditions: comparison of IGF-1R and IR

inhibition of IGF-1R (pIGF-1R) (IGF-1R; A673 Ewing's Sarcoma cells): inhibits both IR and IGF-1R
SMILES: C[C@]1(O)C[C@@H](c2nc(-c3ccc4ccc(-c5ccccc5)nc4c3)c3c(N)nccn32)C1 [OSI-906, cis-3-[8-amino-1-(2-phenyl-quinolin-7-yl)-imidazo[1,5-a]pyrazin-3-yl]-1-methyl-cyclobutanol]
inhibition of pIGF-1R (IGF-1R; H322 and HT-29 cells (FIG. 2)): robust inhibition of both pIR and pIGF-1R
inhibition of the Akt pathway (pAkt) (Akt pathway): greater blockade of the Akt pathway; also recorded: greater capacity to inhibit the Akt pathway
biochemical potencies against IGF-1R and IR (IGF-1R and IR): similar
